Holding throughout (type): cell-based
In series [1] the test system is DU-145. The series is described as follows: Prodrug activation in human DU145 cells assessed as O6-benzylguanine formation under normoxic condition at 50 uM over 3 hrs by HPLC analysis. The note with it: du-145, 3 h.
The subject of series [2] is EMT6. The series is described as follows: Prodrug activation in mouse EMT6 cells assessed as O6-benzylguanine formation under normoxic condition at 50 uM after 3 hrs by HPLC analysis. The note with it: emt6, 3 h.
In series [3] the target is T1, Methylated-DNA--protein-cysteine methyltransferase (Homo sapiens) (UniProt P16455).
T1 sequence (whole entry): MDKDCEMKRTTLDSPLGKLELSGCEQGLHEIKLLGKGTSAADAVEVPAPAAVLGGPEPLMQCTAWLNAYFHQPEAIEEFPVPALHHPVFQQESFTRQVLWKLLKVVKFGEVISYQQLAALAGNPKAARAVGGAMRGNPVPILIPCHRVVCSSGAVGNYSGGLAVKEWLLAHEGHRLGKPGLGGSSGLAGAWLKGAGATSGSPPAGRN
The series is described as follows: Inhibition of AGT in human DU145 cells assessed as potentiation of laromustine-induced cytotoxicity under hypoxic condition up to 10 uM treated 4 hrs prior to laromustine treatment measured after 24 hrs by clonogenic assay. The note with it: DU-145.

For series [4], the target named is T1, Methylated-DNA--protein-cysteine methyltransferase (Homo sapiens). Nature of the series: Inhibition of AGT in human DU145 cells assessed as potentiation of laromustine-induced cytotoxicity under normoxic condition up to 10 uM treated 4 hrs prior to laromustine treatment measured after 24 hrs by clonogenic assay. The note with it: DU-145.
Series [5] has the same target. The series is described as follows: Inhibition of AGT in human DU145 cells assessed as potentiation of laromustine-induced cytotoxicity under hypoxic condition at >10 uM treated 4 hrs prior to laromustine treatment measured after 24 hrs by clonogenic assay. The settings on record: DU-145.
Series [6] shares this target. The series is described as follows: Inhibition of AGT in human DU145 cells assessed as potentiation of laromustine-induced cytotoxicity under normoxic condition up to 50 uM treated 4 hrs prior to laromustine treatment measured after 24 hrs by clonogenic assay. The settings on record: DU-145.
For series [7] the target is unchanged. Nature of the series: Inhibition of AGT in human DU145 cells assessed as potentiation of laromustine-induced cytotoxicity under hypoxic condition up to 50 uM treated 4 hrs prior to laromustine treatment measured after 24 hrs by clonogenic assay. The settings on record: DU-145.

Activity calls are given as the source filed them. No cut-off for these calls is given here.

Regarding `CN(C)c1ccc(/N=N/c2nc(OCc3ccccc3)c3nc[nH]c3n2)cc1`, the Drug metabolism entry in series [1] and in series [2] was “Not Active” in each case. The inhibition result in series [3] and in series [5] was “Active” each time. Further, the inhibition entry in series [4] was “inactive”.
Consider `CN1CCN(c2ccc(/N=N/c3nc(OCc4ccccc4)c4nc[nH]c4n3)cc2)CC1`, for which, in series [6], the inhibition result is “inactive”. For the same compound, the inhibition result in series [7] is “Active”.

Source of the values: ChEMBL document CHEMBL2311245, “Hypoxia-selective O6-alkylguanine-DNA alkyltransferase inhibitors: design, synthesis, and evaluation of 6-(benzyloxy)-2-(aryldiazenyl)-9H-purines as prodrugs of O6-benzylguanine” (J Med Chem, 2013).
